The numbers were not newly measured in patent US20090105346A1, “Novel crystalline forms of armodafinil and preparation thereof” (priority 2007, published 2009), which cites them from elsewhere.

The conditions of this data set: S enantiomer of modafinil compared with R enantiomer; Prisinzano et al., Tetrahedron: Asymmetry (2004).

`NC(=O)C[S+]([O-])C(c1ccccc1)c1ccccc1` (single isomer, unassigned) [S enantiomer]: the “elimination from the body relative to the R enantiomer” value is recorded as “three times faster”.
